Assay results reported in patent publication US9253983B2, “Triazole compound and use thereof” (KUREHA CORPORATION, priority 2011, dated 2016).

What was measured:
Sclerotinia sclerotiorum = experiment: Test 1 for antifungal effect, plate medium: S.s; assay type: cell-based; details: PDA plate medium
Description: (§1) Compound (1-1a) or Compound (1-2a) was dissolved in dimethyl sulfoxide, and the resulting solution was added to a PDA medium (potato dextrose-agar medium) at about 60° C. The medium and the solution were mixed thoroughly in a conical flask, poured into a petri dish, and allowed to solidify. In this way, a plate medium containing Compound (1-1a) or Compound (1-2a) at a certain concentration was prepared.
(§2) Meanwhile, test microorganisms cultured on a plate medium in advance were cut out with the use of a cork borer 4 mm in diameter, and were inoculated onto the compound-containing plate medium. After the inoculation, the microorganisms were cultured at their optimum growth temperatures (for example, refer to LIST OF CULTURES 1996 microorganisms 10th edition, Institute for Fermentation (foundation)) for 1 day to 7 days, and their growth was determined by measuring the diameter of their flora. The extent of growth of the microorganisms on the compound-containing plate medium was compared with that of microorganisms on a plate medium where no compound was added, and mycelial growth inhibition rate was calculated by the following equation: R=100(dc−dt)/dc where R is mycelial growth inhibition rate (%), dc is the flora diameter in untreated plate, and dt is the flora diameter in plate treated with the compound.
(§3) A larger antifungal index indicates a better antifungal effect.

Fusarium oxysporum = experiment: Test 2 for antifungal effect, plate medium: F.c; assay type: cell-based; details: PDA plate medium
Description: (§4) Compound (1-1b) or Compound (1-2b) was dissolved in dimethyl sulfoxide, and the resulting solution was added to a PDA medium (potato dextrose-agar medium) at about 60° C. The medium and the solution were mixed thoroughly in a conical flask, poured into a petri dish, and allowed to solidify. In this way, a plate medium containing Compound (1-1b) or Compound (1-2b) at a certain concentration was prepared.
(§5) Meanwhile, test microorganisms cultured on a plate medium in advance were cut out with the use of a cork borer 4 mm in diameter, and were inoculated onto the compound-containing plate medium. After the inoculation, the pathogens were cultured at their optimum growth temperatures (for example, refer to LIST OF CULTURES 1996 microorganisms 10th edition, Institute for Fermentation (foundation)) for 1 day to 7 days, and their growth was determined by measuring the diameter of their flora. The extent of growth of the pathogens on the compound-containing plate medium was compared with that of pathogens on a plate medium where no compound was added, and mycelial growth inhibition rate was calculated as in Experiment Example 10. Note that, in Experiment Example 11, controls used in the antifungal effect tests are Compound (1-1a) and Compound (1-2a) instead of Compound (1-1b) and Compound (1-2b), respectively.
(§6) The results were rated on a 1-to-5 scale as in Experiment Example 10.

Pyrenophora graminea = experiment: Test 2 for antifungal effect, plate medium: P.g; assay type: cell-based; details: PDA plate medium
Description: as §4, §5, §6

wheat [1] = experiment: Necrosis (adverse effects) of seed treatment on wheat seeds; assay type: in vivo; details: 20 days after sowing
Description: A pot experiment was performed to evaluate necrosis (adverse effects) caused by the seed treatment. Compound (1-1a) and Compound (1-2a), each which was dissolved in DMSO to make up such a concentration that the seeds would be treated in treatment amount of 2 g to 200 g ai/100 kg seeds, were each applied to wheat seeds in a vial, and thereafter 8 wheat seeds were sowed in an 80-cm^2 pot. The pot was kept in a greenhouse with water supplied to its bottom. 20 days after the sowing, an extent of necrosis (percentage of necrotic surface area) of wheat was evaluated. A necrosis index was derived from the percentage of the necrotic surface area, based on the criteria shown by Table 13. In Table 13, a smaller necrosis index indicates a lesser adverse effect of necrosis caused by the treatment with the use of a plant disease controlling agent.

Ustilago nuda = experiment: Test 2 for antifungal effect, plate medium: U.n; assay type: cell-based; details: PDA plate medium
Description: as §4, §5, §6

wheat [2] = experiment: Growth inhibition (adverse effects) of seed treatment on wheat seeds; assay type: in vivo; details: for Growth inhibition index: wheat, 20 days after sowing
Description: A pot experiment was performed to evaluate the growth inhibition (adverse effects) caused by the seed treatment. Compound (1-1a) and Compound (1-2a), each of which was dissolved in DMSO to make up such a concentration that the seeds would be treated in treatment amount of 2 g to 200 g ai/100 kg seeds, were each applied to wheat seeds in a vial, and thereafter 8 wheat seeds were sowed in an 80-cm^2 pot. The pot was kept in a greenhouse with water supplied to its bottom. 20 days after the sowing, a growth measure of wheat was evaluated. A growth inhibition index was calculated based on the criteria shown by Table 10. In Table 10, a smaller growth inhibition index indicates a lesser adverse effect of growth inhibition caused by the treatment with the use of a plant disease controlling agent.

Glomerella cingurata = experiment: Test 1 for antifungal effect, plate medium: G.c; assay type: cell-based; details: PDA plate medium
Description: as §1, §2, §3

Puccinia recondita = experiment: Controlling effect on wheat brown rust (leaf rust) by foliage spray treatment (Tests 1 and 2); assay type: in vivo; details: foliage spray 0.8 mg/L, 1,000 L/ha, 11 days after inoculation
Description: The wheat plants had been grown in square plastic pots (6 cm×6 cm). The suspensions were left to dry, and inoculated with spores of Puccinia recondita (adjusted at 200 spores per field of vision, Gramin S was added at 60 ppm) by spraying, and kept at 25° C. in a high humidity environment for 48 hours. After that, the plants were kept in a greenhouse. 11 days after the inoculation, the lesion degree of the wheat leaf rust was examined in accordance with the criteria shown in Table 4, and the protective values were calculated by the following equation. Protective value (%)=(1−Average lesion degree in sprayed plot/Average lesion degree in unsprayed plot)×100
The wheat plants had been grown in square plastic pots (6 cm×6 cm). The leaves were air-dried, and inoculated with spores of Puccinia recondita (adjusted at 200 spores per field of vision, Gramin S was added at 60 ppm) by spraying, and kept at 25° C. in a high humidity environment for 48 hours. After that, the plants were kept in a greenhouse. 11 days after the inoculation, the lesion degree of the wheat leaf rust was examined, and the protective values were calculated as were in Experiment Example 2.

[3] = treatment amount 2 g ai/100 kg seeds
[4] = treatment amount 20 g ai/100 kg seeds
[5] = treatment amount 200 g ai/100 kg seeds

Row | SMILES | Antifungal index (mycelial growth inhibition rate) (Sclerotinia sclerotiorum; 0.16 mg/L) | Antifungal index (mycelial growth inhibition rate) (Sclerotinia sclerotiorum; 0.31 mg/L) | Antifungal index (mycelial growth inhibition rate) (Sclerotinia sclerotiorum; 0.63 mg/L) | Antifungal index (mycelial growth inhibition rate) (Sclerotinia sclerotiorum; 1.25 mg/L) | Antifungal index (mycelial growth inhibition rate) (Sclerotinia sclerotiorum; 2.50 mg/L) | Antifungal index (mycelial growth inhibition rate) (Fusarium oxysporum; 0.04 mg/L) | Antifungal index (mycelial growth inhibition rate) (Fusarium oxysporum; 0.08 mg/L) | Antifungal index (mycelial growth inhibition rate) (Fusarium oxysporum; 0.16 mg/L) | Antifungal index (mycelial growth inhibition rate) (Fusarium oxysporum; 0.31 mg/L) | Antifungal index (mycelial growth inhibition rate) (Fusarium oxysporum; 0.63 mg/L) | Antifungal index (mycelial growth inhibition rate) (Fusarium oxysporum; 1.25 mg/L) | Antifungal index (mycelial growth inhibition rate) (Pyrenophora graminea; 0.04 mg/L) | Antifungal index (mycelial growth inhibition rate) (Pyrenophora graminea; 0.08 mg/L) | Antifungal index (mycelial growth inhibition rate) (Pyrenophora graminea; 0.16 mg/L) | Antifungal index (mycelial growth inhibition rate) (Pyrenophora graminea; 0.31 mg/L) | Antifungal index (mycelial growth inhibition rate) (Pyrenophora graminea; 0.63 mg/L) | Antifungal index (mycelial growth inhibition rate) (Pyrenophora graminea; 1.25 mg/L) | Necrosis index (wheat [1]; [3]) | Necrosis index (wheat [1]; [4]) | Necrosis index (wheat [1]; [5]) | other results
1 | CC1(CCl)CCC(Cc2ccc(F)cc2)C1(O)Cn1cncn1 (single isomer, unassigned) [Compound (1-2a), (1,2-cis, 1,5-cis)-5-(4-fluorobenzyl)-2-chloromethyl-2-methyl-1-(1H-1,2,4-triazole-1-ylmethyl)cyclopentanol] | 5 (90% or greater) | 5 (90% or greater) | 5 (90% or greater) | 5 (90% or greater) | 5 (90% or greater) | 1 (Less than 60%) | 1 (Less than 60%) | 2 (Less than 70% but not less than 60%) | 3 (Less than 80% but not less than 70%) | 4 (Less than 90% but not less than 80%) | 5 (90% or greater) | 1 (Less than 60%) | 2 (Less than 70% but not less than 60%) | 4 (Less than 90% but not less than 80%) | 5 (90% or greater) | 5 (90% or greater) | 5 (90% or greater) | 0 (Less than 1%) | 0 (Less than 1%) | 0 (Less than 1%) | Antifungal index (mycelial growth inhibition rate) (Ustilago nuda; 0.04 mg/L): 1 (Less than 60%); Antifungal index (mycelial growth inhibition rate) (Ustilago nuda; 0.08 mg/L): 1 (Less than 60%); Antifungal index (mycelial growth inhibition rate) (Ustilago nuda; 0.16 mg/L): 1 (Less than 60%); Antifungal index (mycelial growth inhibition rate) (Ustilago nuda; 0.31 mg/L): 1 (Less than 60%); Antifungal index (mycelial growth inhibition rate) (Ustilago nuda; 0.63 mg/L): 1 (Less than 60%); Antifungal index (mycelial growth inhibition rate) (Ustilago nuda; 1.25 mg/L): 2 (Less than 70% but not less than 60%); Growth inhibition index (wheat [2]; [3]): 0 (50% or more); Growth inhibition index (wheat [2]; [4]): 0 (50% or more); Growth inhibition index (wheat [2]; [5]): 2 (Less than 40% but 30% or more); Antifungal index (mycelial growth inhibition rate) (Glomerella cingurata; 0.16 mg/L): 5 (90% or greater); Antifungal index (mycelial growth inhibition rate) (Glomerella cingurata; 0.31 mg/L): 5 (90% or greater); Antifungal index (mycelial growth inhibition rate) (Glomerella cingurata; 0.63 mg/L): 5 (90% or greater); Antifungal index (mycelial growth inhibition rate) (Glomerella cingurata; 1.25 mg/L): 5 (90% or greater); Antifungal index (mycelial growth inhibition rate) (Glomerella cingurata; 2.50 mg/L): 5 (90% or greater); Protective value (%) (Puccinia recondita): 91%
2 | CC1(CCl)CCC(Cc2ccc(F)cc2)C1(O)Cn1cncn1 (single isomer, unassigned) [Compound (1-2b), (1,2-cis, 1,5-cis)-5-(4-fluorobenzyl)-2-chloromethyl-2-methyl-1-(1H-1,2,4-triazole-1-ylmethyl)cyclopentanol] | 3 (Less than 80% but not less than 70%) | 5 (90% or greater) | 5 (90% or greater) | 5 (90% or greater) | 5 (90% or greater) | 1 (Less than 60%) | 2 (Less than 70% but not less than 60%) | 3 (Less than 80% but not less than 70%) | 4 (Less than 90% but not less than 80%) | 5 (90% or greater) | 5 (90% or greater) | 4 (Less than 90% but not less than 80%) | 5 (90% or greater) | 5 (90% or greater) | 5 (90% or greater) | 5 (90% or greater) | 5 (90% or greater) | 0 (Less than 1%) | 3 (20% or more) | 3 (20% or more) | Antifungal index (mycelial growth inhibition rate) (Ustilago nuda; 0.04 mg/L): 1 (Less than 60%); Antifungal index (mycelial growth inhibition rate) (Ustilago nuda; 0.08 mg/L): 1 (Less than 60%); Antifungal index (mycelial growth inhibition rate) (Ustilago nuda; 0.16 mg/L): 2 (Less than 70% but not less than 60%); Antifungal index (mycelial growth inhibition rate) (Ustilago nuda; 0.31 mg/L): 4 (Less than 90% but not less than 80%); Antifungal index (mycelial growth inhibition rate) (Ustilago nuda; 0.63 mg/L): 4 (Less than 90% but not less than 80%); Antifungal index (mycelial growth inhibition rate) (Ustilago nuda; 1.25 mg/L): 5 (90% or greater); Growth of the treated seeds (wheat [2]; wheat seed treatment 20 g ai/100 kg seeds (seen in the brown rust seed treatment test)): inhibited; Growth inhibition index (wheat [2]; [3]): 0 (50% or more); Growth inhibition index (wheat [2]; [4]): 4 (Less than 20% but 10% or more); Growth inhibition index (wheat [2]; [5]): 5 (Less than 10%); Antifungal index (mycelial growth inhibition rate) (Glomerella cingurata; 0.16 mg/L): 3 (Less than 80% but not less than 70%); Antifungal index (mycelial growth inhibition rate) (Glomerella cingurata; 0.31 mg/L): 4 (Less than 90% but not less than 80%); Antifungal index (mycelial growth inhibition rate) (Glomerella cingurata; 0.63 mg/L): 5 (90% or greater); Antifungal index (mycelial growth inhibition rate) (Glomerella cingurata; 1.25 mg/L): 5 (90% or greater); Antifungal index (mycelial growth inhibition rate) (Glomerella cingurata; 2.50 mg/L): 5 (90% or greater); Protective value (%) (Puccinia recondita): 80%
